# Data: paper PMC11862108, “Nitro‐fatty acids‐mediated nitroalkylation modulates fine‐tuning catalase antioxidant function during salinity stress in plants” (Protein Science : A Publication of the Protein Society, 2025)
# How the values were obtained:
# [1] = molecular target: T1, Arabidopsis recombinant CAT2 protein (Arabidopsis thaliana, UniProt P25819); assay: H2O2 disappearance at […] nm; type: biochemical; details: 30 min preincubation at 25 °C; covalent (nitroalkylation of His); NO2-Ln concentration not given; MeOH vehicle control; regioisomer not defined
# T1 construct: commercial recombinant protein (LSBio, Life Span BioSciences); heme enzyme
# T1 sequence (P25819 1-492): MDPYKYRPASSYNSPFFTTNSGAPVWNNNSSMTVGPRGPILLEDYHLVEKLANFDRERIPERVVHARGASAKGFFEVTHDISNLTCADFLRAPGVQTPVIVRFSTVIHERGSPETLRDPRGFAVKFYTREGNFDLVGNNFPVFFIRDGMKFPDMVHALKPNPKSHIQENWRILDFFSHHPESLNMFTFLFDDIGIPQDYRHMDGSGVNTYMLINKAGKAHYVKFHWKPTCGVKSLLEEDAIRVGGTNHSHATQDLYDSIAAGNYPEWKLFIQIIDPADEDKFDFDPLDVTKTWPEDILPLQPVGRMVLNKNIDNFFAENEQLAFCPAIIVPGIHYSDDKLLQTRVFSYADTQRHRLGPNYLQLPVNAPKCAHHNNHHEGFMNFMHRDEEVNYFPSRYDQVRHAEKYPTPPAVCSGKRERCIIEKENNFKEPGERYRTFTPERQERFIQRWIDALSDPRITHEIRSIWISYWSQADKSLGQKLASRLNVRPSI
# [2] = molecular target: T2, CAT from bovine liver (Bos taurus, UniProt P00432); assay: H2O2 disappearance at […] nm; type: biochemical; details: 30 min preincubation at 25 °C; NO2-Ln concentration not given; MeOH vehicle control; regioisomer not defined
# T2 construct: commercial bovine liver catalase (Sigma)
# T2 sequence (P00432 2-527): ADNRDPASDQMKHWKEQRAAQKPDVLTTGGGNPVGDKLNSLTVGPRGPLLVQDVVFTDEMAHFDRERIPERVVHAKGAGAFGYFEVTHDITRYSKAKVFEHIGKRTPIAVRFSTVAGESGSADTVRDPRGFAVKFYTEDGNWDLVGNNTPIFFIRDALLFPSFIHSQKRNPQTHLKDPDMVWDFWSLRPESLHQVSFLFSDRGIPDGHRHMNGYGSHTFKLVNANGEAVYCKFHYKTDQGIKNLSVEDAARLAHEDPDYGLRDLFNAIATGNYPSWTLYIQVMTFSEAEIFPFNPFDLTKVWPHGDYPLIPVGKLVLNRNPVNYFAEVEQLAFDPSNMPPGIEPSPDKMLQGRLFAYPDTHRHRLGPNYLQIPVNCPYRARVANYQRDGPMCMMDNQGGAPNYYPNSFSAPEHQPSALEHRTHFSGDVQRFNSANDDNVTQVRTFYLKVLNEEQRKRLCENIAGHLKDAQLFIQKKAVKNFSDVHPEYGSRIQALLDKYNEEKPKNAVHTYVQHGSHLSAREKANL
substance,measurement,setting,value
NO2-Ln,% inhibition,[1],36%
same,% inhibition,[2],60%
